Test results as given in patent US20150150879A2, “Compositions for Treatment of Cystic Fibrosis and Other Chronic Diseases” (Vertex Pharmaceuticals Incorporated, priority 2010, published 2015).

Molecular target: T1, ΔF508-CFTR (Homo sapiens, UniProt P13569, DEL508-508)
T1 construct: expressed in transfected cells
Assay: Membrane potential optical (FRET/VIPR) assay, identification of potentiator compounds, NIH3T3 cells stably expressing ΔF508-CFTR
Format: cell-based
Details: Table II.A-4, assay not given; for EC50: modulators of ATP binding cassette transporters
Description: I) Membrane Potential Optical Methods for Assaying ΔF508-CFTR Modulation Properties of Compounds
The optical membrane potential assay utilized voltage-sensitive FRET sensors described by Gonzalez and Tsien (See, Gonzalez, J. E. and R. Y. Tsien (1995) “Voltage sensing by fluorescence resonance energy transfer in single cells” Biophys J 69(4): 1272-80, and Gonzalez, J. E. and R. Y. Tsien (1997) “Improved indicators of cell membrane potential that use fluorescence resonance energy transfer” Chem Biol 4(4): 269-77) in combination with instrumentation for measuring fluorescence changes such as the Voltage/Ion Probe Reader (VIPR) (See, Gonzalez, J. E., K. Oades, et al. (1999) “Cell-based assays and instrumentation for screening ion-channel targets” Drug Discov Today 4(9): 431-439).
These voltage sensitive assays are based on the change in fluorescence resonant energy transfer (FRET) between the membrane-soluble, voltage-sensitive dye, DiSBAC2(3), and a fluorescent phospholipid, CC2-DMPE, which is attached to the outer leaflet of the plasma membrane and acts as a FRET donor. Changes in membrane potential (Vm) cause the negatively charged DiSBAC2(3) to redistribute across the plasma membrane and the amount of energy transfer from CC2-DMPE changes accordingly. The changes in fluorescence emission were monitored using VIPR™ II, which is an integrated liquid handler and fluorescent detector designed to conduct cell-based screens in 96- or 384-well microtiter plates.
Identification of Potentiator Compounds
To identify potentiators of ΔF508-CFTR, a double-addition HTS assay format was developed. During the first addition, a Cl^−-free medium with or without test compound was added to each well. After 22 sec, a second addition of Cl^−-free medium containing 2-10 μM forskolin was added to activate ΔF508-CFTR. The extracellular Cl^− concentration following both additions was 28 mM, which promoted Cl^− efflux in response to ΔF508-CFTR activation and the resulting membrane depolarization was optically monitored using the FRET-based voltage-sensor dyes. Solutions […]

T1 sequence (P13569 with tags, fused parts or gaps DEL508-508): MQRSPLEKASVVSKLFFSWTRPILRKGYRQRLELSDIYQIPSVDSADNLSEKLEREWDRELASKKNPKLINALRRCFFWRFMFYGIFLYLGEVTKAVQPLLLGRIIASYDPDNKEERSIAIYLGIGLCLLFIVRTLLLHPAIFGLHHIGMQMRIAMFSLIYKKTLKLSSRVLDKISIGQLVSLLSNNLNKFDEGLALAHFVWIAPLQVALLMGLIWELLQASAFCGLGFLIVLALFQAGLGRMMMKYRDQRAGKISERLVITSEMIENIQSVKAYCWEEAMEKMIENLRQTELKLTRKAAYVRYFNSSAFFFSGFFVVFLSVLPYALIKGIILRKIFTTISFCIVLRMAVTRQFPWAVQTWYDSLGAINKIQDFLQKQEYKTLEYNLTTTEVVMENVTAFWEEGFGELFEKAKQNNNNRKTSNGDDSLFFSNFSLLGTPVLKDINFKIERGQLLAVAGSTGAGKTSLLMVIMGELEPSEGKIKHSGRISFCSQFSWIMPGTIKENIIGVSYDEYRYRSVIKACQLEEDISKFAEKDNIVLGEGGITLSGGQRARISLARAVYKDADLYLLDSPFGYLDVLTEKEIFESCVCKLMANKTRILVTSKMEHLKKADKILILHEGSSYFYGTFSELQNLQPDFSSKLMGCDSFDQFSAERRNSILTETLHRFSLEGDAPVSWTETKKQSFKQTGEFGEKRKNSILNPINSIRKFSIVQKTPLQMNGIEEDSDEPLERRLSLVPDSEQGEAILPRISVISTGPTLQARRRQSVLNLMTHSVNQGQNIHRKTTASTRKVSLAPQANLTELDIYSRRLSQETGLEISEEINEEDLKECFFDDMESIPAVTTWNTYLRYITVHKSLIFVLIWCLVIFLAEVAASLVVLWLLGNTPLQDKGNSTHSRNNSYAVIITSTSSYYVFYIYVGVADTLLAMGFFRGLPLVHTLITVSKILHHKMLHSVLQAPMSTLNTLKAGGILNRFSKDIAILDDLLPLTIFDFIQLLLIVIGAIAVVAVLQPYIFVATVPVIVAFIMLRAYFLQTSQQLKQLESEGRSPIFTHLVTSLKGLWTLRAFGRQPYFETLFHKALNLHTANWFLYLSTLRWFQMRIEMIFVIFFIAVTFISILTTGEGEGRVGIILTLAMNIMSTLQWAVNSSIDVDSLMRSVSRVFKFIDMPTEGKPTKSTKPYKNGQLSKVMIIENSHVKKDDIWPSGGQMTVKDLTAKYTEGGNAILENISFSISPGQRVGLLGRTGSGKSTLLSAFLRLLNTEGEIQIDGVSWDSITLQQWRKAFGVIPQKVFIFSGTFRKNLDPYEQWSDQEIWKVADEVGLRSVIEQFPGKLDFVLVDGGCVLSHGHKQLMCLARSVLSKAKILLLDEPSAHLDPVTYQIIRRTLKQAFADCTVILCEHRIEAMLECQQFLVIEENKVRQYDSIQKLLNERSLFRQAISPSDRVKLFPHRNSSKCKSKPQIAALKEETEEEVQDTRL

| Compound | EC50 | % Activity (relative efficacy) (relative efficacy) |
| --- | --- | --- |
| CC(C)(C)c1cc(C(C)(C)C)c(NC(=O)c2c[nH]c3cccc(O)c3c2=O)cc1O [Compound 464, 5-hydroxy-N-(5-hydroxy-2,4-ditert-butyl-phenyl)-4-oxo-1H-quinoline-3-carboxamide] | < 10 µM | ++ (“++” means between 25% to 100%) |
| Cc1cc2nc(NC(=O)c3c[nH]c4ccccc4c3=O)[nH]c2cc1C [compound 422, N-(5,6-dimethyl-3H-benzoimidazol-2-yl)-4-oxo-1H-quinoline-3-carboxamide] | < 10 µM |  |
